Counter-ions that a name gives are not always drawn.
Experiment: collision cross section in nitrogen (drift tube, single-field); higher = larger gas-phase ion size
[1] = ion type: [M+H], ion source: ESI, ion mode: Positive
[2] = ion type: [M+Na], ion source: ESI, ion mode: Positive
[3] = ion type: [M+H], ion source: APCI, ion mode: Positive
[4] = ion type: [M-H], ion source: ESI, ion mode: Negative
[5] = ion type: [M+], ion source: APCI, ion mode: Positive
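Further: chemical standards at 10 µM analysed by drift tube IMS-QTOF MS in about 3.95 torr nitrogen, mean of duplicate injections differing ≤1%, mass error below 10 ppm.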

Row | SMILES | collision cross section in nitrogen [1] | collision cross section in nitrogen [2] | collision cross section in nitrogen [3] | collision cross section in nitrogen [4] | collision cross section in nitrogen [5]
1 | COC(=O)N(C(=O)N1COC2(C(=O)OC)Cc3cc(Cl)ccc3C2=N1)c1ccc(OC(F)(F)F)cc1 (racemic) [(+/-)-Indoxacarb] | 205.6 Å² | 220.6 Å² |  |  | 
2 | Cc1cccc2nccnc12 [5-Methylquinoxaline] |  |  | 126.5 Å² |  | 
3 | Nc1nc(N)c2nc(CNc3ccc(C(=O)N[C@@H](CCC(=O)O)C(=O)O)cc3)cnc2n1 [Aminopterin] |  |  |  | 199.5 Å² | 
4 | CC(C)(C)c1cc(CCC(=O)NN)cc(C(C)(C)C)c1O [3-[3,5-DI(tert-butyl)-4-hydroxyphenyl]propanohydrazide] |  | 179.3 Å² |  | 174.5 Å² | 
5 | Oc1ccccc1Br [2-Bromophenol] |  |  |  | 120.2 Å² | 
6 | CCCCCCCCOS(=O)(=O)O [Sodium octyl sulfate] |  |  |  | 151.3 Å² | 
7 | CCN1CCCC1=O [1-Ethyl-2-pyrrolidinone] |  |  | 121.7 Å² |  | 
8 | N=C(N)c1ccc(OCCCCCOc2ccc(C(=N)N)cc2)cc1 [Pentamidine isethionate] | 177.4 Å² | 183.2 Å² |  |  | 
9 | CN(C)c1ccc(C=O)cc1 [4-Dimethylaminobenzaldehyde] | 129 Å² |  | 129.3 Å² |  | 
10 | CC(C)c1ccccc1O [2-Isopropylphenol] |  |  |  | 129.3 Å² | 
11 | CC(C)(c1cc(Cl)c(O)c(Cl)c1)c1cc(Cl)c(O)c(Cl)c1 [2,2',6,6'-Tetrachlorobisphenol A] |  |  |  | 184.3 Å² | 
12 | Cc1cc(=O)[nH]c(=O)[nH]1 [6-Methyluracil] |  |  |  | 120.5 Å² | 
13 | COC(=O)[C@@H](C)Oc1ccc(Oc2ncc(C(F)(F)F)cc2Cl)cc1 [Haloxyfop-P-methyl] | 185.1 Å² | 186.4 Å² |  |  | 
14 | c1ccc2cc3c(cc2c1)-c1cccc2cccc-3c12 [Benzo[k]fluoranthene] |  |  |  |  | 151.3 Å²
15 | NC(=O)N1c2ccccc2CC(=O)c2ccccc21 [Oxcarbazepine] | 154.8 Å² | 162.4 Å² | 153.9 Å² |  | 
16 | CCCCC(CC)COC(=O)c1ccc(O)cc1 (centres undefined) [2-Ethylhexyl p-hydroxybenzoate] |  |  |  | 169.9 Å² | 
17 | CN(C)CCC=C1c2ccccc2CCc2ccccc21 [Amitriptyline hydrochloride] | 167.5 Å² | 175.7 Å² | 166.8 Å² |  | 
18 | CC(C)(COC(=O)c1ccccc1)COC(=O)c1ccccc1 [Neopentyl glycol dibenzoate] |  | 180.7 Å² |  |  | 
19 | O=[N+]([O-])c1cc(N(CCO)CCO)ccc1NCCO [HC Blue 2] | 171.1 Å² | 177.5 Å² | 171.3 Å² |  | 
20 | COc1nc(C)nc(N)n1 [2-Amino-4-methoxy-6-methyl-1,3,5-triazine] | 123.4 Å² |  | 122.7 Å² |  | 
21 | CCON=C(CC)C1=C(O)CC(c2c(C)cc(C)cc2C)CC1=O (centres undefined) [Tralkoxydim] | 187 Å² | 196.2 Å² | 187.3 Å² | 188.9 Å² | 
22 | C[C@]12CC[C@H](O)C[C@H]1CC[C@@H]1[C@@H]2C[C@@H](O)[C@]2(C)[C@@H](C3=CC(=O)OC3)CC[C@]12O [Digoxigenin] |  | 220.7 Å² |  |  | 

Row | SMILES | collision cross section in nitrogen [1] | collision cross section in nitrogen [2] | collision cross section in nitrogen [3] | collision cross section in nitrogen [4] | collision cross section in nitrogen [5]
23 | CCCOP(=O)(OCCC)OCCC [Tripropyl phosphate] |  | 168.5 Å² |  |  | 
24 | O=C(OCc1ccccc1)c1ccc(O)cc1 [Benzyl 4-hydroxybenzoate] |  |  |  | 158.5 Å² | 
25 | CCNc1nc(NC(C)C(C)C)nc(SC)n1 (centres undefined) [Dimethametryn] | 165 Å² |  | 165.4 Å² | 166.9 Å² | 
26 | CS(=O)(=O)OCCOS(C)(=O)=O [Ethylene dimethanesulfonate] |  | 144.8 Å² |  |  | 
27 | CC1=Nc2ccc3ccccc3c2C1(C)C [1,1,2-Trimethyl-1H-benzo[e]indole] | 146.7 Å² |  | 145.8 Å² |  | 
28 | CCc1c(C)cc(N)c(CC)c1N [Diethylmethylbenzenediamine] | 141.3 Å² | 145.3 Å² | 140.6 Å² |  | 
29 | Cc1ccc(OP(=O)(Oc2ccc(C)cc2)Oc2ccc(C)cc2)cc1 [Tris(4-methylphenyl) phosphate] | 190.1 Å² | 200.1 Å² | 191 Å² |  | 
30 | O=Cc1ccccc1S(=O)(=O)O [Sodium 2-formylbenzenesulfonate] |  |  |  | 130.9 Å² | 
31 | O=C1NC(=O)c2cccc3cccc1c23 [1H-Benzo[de]isoquinoline-1,3(2H)-dione] |  |  |  | 140.8 Å² | 
32 | Nc1ccc(S(=O)(=O)c2ccc(N)cc2)cc1 [Dapsone] | 155 Å² | 170.7 Å² | 155.5 Å² | 157.9 Å² | 
33 | CCCCNC1CC(C)(C)NC(C)(C)C1 [N-Butyl-2,2,6,6-tetramethylpiperidin-4-amine] | 154 Å² |  | 153.3 Å² |  | 
34 | COc1ccc(O)c(C(C)(C)C)c1 [2-tert-Butyl-4-methoxyphenol] |  |  |  | 142.3 Å² | 
35 | Nc1c(Br)cc([N+](=O)[O-])cc1Br [2,6-Dibromo-4-nitroaniline] |  |  |  | 134.9 Å² | 
36 | Cc1cc(-c2ccc(N)c(C)c2)ccc1N [3,3'-Dimethylbenzidine dihydrochloride] | 166.2 Å² |  | 151.9 Å² |  | 150.7 Å²
37 | O=C(c1ccccc1)c1ccccc1O [2-Hydroxybenzophenone] |  |  |  | 143.4 Å² | 
38 | Nc1nc2ccccc2[nH]1 [2-Aminobenzimidazole] | 126.8 Å² |  | 126.2 Å² | 123.5 Å² | 123.9 Å²
39 | CO/C=C(/C(=O)OC)c1ccccc1COc1cccc(C(F)(F)F)n1 [Picoxystrobin] |  | 179.3 Å² |  |  | 
40 | Nc1ccc(C(=O)OCCCOC(=O)c2ccc(N)cc2)cc1 [1,3-Propanediyl bis(p-aminobenzoate)] |  | 188.2 Å² |  | 166.6 Å² | 
41 | C[C@@H]1CCN(C(=O)[C@H](CCCNC(=N)N)NS(=O)(=O)c2cccc3c2NC[C@H](C)C3)[C@@H](C(=O)O)C1 [Argatroban monohydrate] | 217 Å² | 221.7 Å² |  | 207.8 Å² | 
42 | CN1[C@@H]2C[C@@H](OC(=O)[C@H](CO)c3ccccc3)C[C@H]1[C@@H]1O[C@@H]12 [Scopolamine hydrochloride] | 171.7 Å² |  | 172.2 Å² |  | 
43 | Oc1cccc(-c2ccccc2)c1 [3-Phenylphenol] |  |  |  | 140 Å² | 
44 | O=C(O)c1ccc2c(c1)C(=O)OC2=O [Trimellitic anhydride] |  |  |  | 146.5 Å² | 

Reference: the supplement of paper PMC12317010
